Laboratory results from US6605634B2 (Amgen, Inc., priority 1996, dated 2003).

Test system: production of tumor necrosis factor (TNF) by monocytes activated with bacterial lipopolysaccharide (LPS)
Assay: Lipopolysaccharide-activated Monocyte TNF Production Assay
Assay type: cell-based
Settings: Homo sapiens, TNF in culture supernatants by ELISA, read-out: IC50 (concentration of test compounds causing a 50% reduction in TNF production)
Experimental: Lipopolysaccharide-activated Monocyte TNF Production Assay
Test compounds were evaluated in vitro for the ability to inhibit the production of tumor necrosis factor (TNF) by monocytes activated with bacterial lipopolysaccharide (LPS). Fresh residual source leukocytes (a byproduct of plateletpheresis) were obtained from the local blood bank and peripheral blood mononuclear cells (PBMCs) were isolated by density gradient centrifugation on Ficol-Paque Plus (Pharmacia). PBMCs were suspended at 2×10^6/ml in DMEM supplemented to contain 2% FCS (10 mM), 0.3 mg/ml glutamate, 100 U/ml penicillin G and […] streptomycin sulfate (complete media). Cells were plated into Falcon flatbottom 96 well culture plates (200 μl/well) and cultured overnight at 37° C. and 6% CO2. Nonadherent cells were removed by washing with 200 μl/well of fresh medium. Wells containing adherent cells (˜70% monocytes) were replenished with 100 μl of fresh medium.
Preparation of Test Compound Stock Solutions
Test compounds were dissolved in […]. Compound stock solutions were prepared to an initial concentration of […]. Stocks were diluted initially to 20-200 μM in complete media. Nine two-fold serial dilutions of each compound were then prepared in complete medium.
Treatment of Cells with Test Compounds and Activation of TNF Production with Lipopolysaccharide
One hundred microliters of each test compound dilution were added to microtiter wells containing adherent monocytes and 100 μl complete medium. Monocytes were cultured with test compounds for 60 min at which time 25 μl of complete medium containing 30 ng/ml lipopolysaccharide from E. coli K532 were added to each well. Cells were cultured an additional 4 hrs. Culture supernatants were then removed and TNF present in the supernatants was quantified using an ELISA.
Flat bottom 96 well Coming High Binding ELISA plates were coated overnight (4° C.) with 150 μL/well of 3 μg/ml murine anti-human TNFa MAb (R&D Systems #MAB210). Wells were then blocked 1 h at room temperature with 200 μL/well of CaCl2-free ELISA buffer supplemented to contain 20 mg/ml BSA (standard ELISA buffer: […], 150 mM NaCl, 2 mM CaCl2, 0.15 mM thimerosal, pH 7.4). Plates were washed and replenished with 100 μl of test supernatants (diluted 1:3) or standards. Standards consisted of eleven 1.5-fold serial dilutions from a stock of 1 ng/ml recombinant human TNF (R&D Systems). Plates were incubated at room temperature for 1 h on orbital shaker (300 rpm), washed and replenished with 100 μl/well of 0.5 jig/ml goat anti-human TNFa (R&D systems #AB-210-NA) biotinylated at a 4:1 ratio. Plates were incubate for 40 min, washed and replenished with 100 μl/well of alkaline phosphatase-conjugated streptavidin (Jackson ImmunoResearch #016-050-084) at 0.02 μg/ml. Plates were incubated 30 min, washed and replenished with 200 μl well of 1 mg/ml of p-nitrophenyl phosphate. After 30 min, plates were read at 405 nm on a Vmax plate reader.
Standard curve data were fit to a second order polynomial and unknown TNF-a concentrations determined from their OD by solving this equation for concentration. TNF concentrations were then plotted Vs test compound concentration using a second order polynomial. This equation was then used to calculate the concentration of test compounds causing a 50% reduction in TNF production.

`Fc1ccc(-c2[nH]c3nccnc3c2-c2ccncc2)cc1` [Compound 99, 3-(4-pyridyl)-2-(4-fluorophenyl)-4,7-diaza-indole] and `C[C@H](N)C(=O)Nc1ccc2c(-c3ccncc3)c(-c3ccc(F)cc3)[nH]c2n1` [Compound 123, 6-(1′-oxo-2′S-aminopropylamino)-3-(4-pyridyl)-2-(4-fluorophenyl)-7-aza-indole] cannot be ordered by IC50: under 20 µM for the first, under 1 µM for the second.

`CC(C)(C)OC(=O)N1CCC[C@H]1C(=O)Nc1ccc2c(-c3ccncc3)c(-c3ccc(F)cc3)[nH]c2n1` [Compound 100, 6-(2′-N-t-Butoxycarbonyl-L-prolylamino)-3-(4-pyridyl)-2-(4-fluorophenyl)-7-aza-indole] and `CC(C)(C)OC(=O)N1CCC(C(=O)Nc2ccc3c(-c4ccncc4)c(-c4ccc(F)cc4)[nH]c3n2)CC1` [Compound 106, 6-(4′-N-t-butoxycarbonylisonipecotylamino)-3-(4-pyridyl)-2-(4-fluorophenyl)-7-aza-indole] cannot be ordered by IC50: under 20 µM for the first, under 1 µM for the second.

`O=C(Nc1ccc2c(-c3ccncc3)c(-c3ccc(F)cc3)[nH]c2n1)[C@@H]1CCCN1` [Compound 101, 6-(2′-L-prolylamino)-3-(4-pyridyl)-2-(4-fluorophenyl)-7-aza-indole] and `O=C(Nc1ccc2c(-c3ccncc3)c(-c3ccc(F)cc3)[nH]c2n1)C1CCNCC1` [Compound 107, 6-(4′-isonipecotylamino)-3-(4-pyridyl)-2-(4-fluorophenyl)-7-aza-indole] cannot be ordered by IC50: under 20 µM for the first, under 1 µM for the second.

`C[C@@H](C(=O)Nc1ccc2c(-c3ccncc3)c(-c3ccc(F)cc3)[nH]c2n1)N(C)C` [Compound 102, 6-(2S′-dimethylamino-1′-oxo-propylamino)-3-(4-pyridyl)-2-(4-fluorophenyl)-7-aza-indole] and `C[C@@H](N)C(=O)Nc1ccc2c(-c3ccncc3)c(-c3ccc(F)cc3)[nH]c2n1` [Compound 131, 6-(1′-oxo-2′R-aminopropylamino)-3-(4-pyridyl)-2-(4-fluorophenyl)-7-aza-indole] cannot be ordered by IC50: under 1 µM for the first, under 1 µM for the second.

`CN(C)CC(=O)Nc1ccc2c(-c3ccncc3)c(-c3ccc(F)cc3)[nH]c2n1` [Compound 103, 6-(2′-Dimethylamino-1′-oxo-ethylamino)-3-(4-pyridyl)-2-(4-fluorophenyl)-7-aza-indole] and `CNCC(=O)Nc1ccc2c(-c3ccncc3)c(-c3ccc(F)cc3)[nH]c2n1` [Compound 105, 6-(2′-N-methyl-amino-1′-oxo-ethylamino)-3-(4-pyridyl)-2-(4-fluorophenyl)-7-aza-indole] cannot be ordered by IC50: under 20 µM for the first, under 1 µM for the second.

`CN(CC(=O)Nc1ccc2c(-c3ccncc3)c(-c3ccc(F)cc3)[nH]c2n1)C(=O)OC(C)(C)C` [Compound 104, 6-(2′-N-methyl-t-butoxycarbonylamino-1′-oxo-ethylamino)-3-(4-pyridyl)-2-(4-fluorophenyl)-7-aza-indole] and `C[S+]([O-])CC[C@H](NC(=O)OC(C)(C)C)C(=O)Nc1ccc2c(-c3ccncc3)c(-c3ccc(F)cc3)[nH]c2n1` (stereo partly drawn) [Compound 108, 6-(4′-methylsulfoxo-1′-oxo-2′S-t-butoxycarbonylaminobutylamino)-3-(4-pyridyl)-2-(4-fluorophenyl)-7-aza-indole] cannot be ordered by IC50: under 1 µM for the first, under 20 µM for the second.

`C[S+]([O-])CC[C@H](N)C(=O)Nc1ccc2c(-c3ccncc3)c(-c3ccc(F)cc3)[nH]c2n1` (stereo partly drawn) [Compound 109, 6-(4′-methylsulfoxo-1′-oxo-2′S-aminobutylamino)-3-(4-pyridyl)-2-(4-fluorophenyl)-7-aza-indole] and `CN[C@@H](C)C(=O)Nc1ccc2c(-c3ccncc3)c(-c3ccc(F)cc3)[nH]c2n1` [Compound 127, 6-(1′-oxo-2′S-N-methylaminopropylamino)-3-(4-pyridyl)-2-(4-fluorophenyl)-7-aza-indole] cannot be ordered by IC50: under 20 µM for the first, under 1 µM for the second.

`CC(C)(C)OC(=O)N[C@@H](Cc1cccnc1)C(=O)Nc1ccc2c(-c3ccncc3)c(-c3ccc(F)cc3)[nH]c2n1` [Compound 110, 6-(3′-(3-pyridyl)-1′-oxo-2′S-t-butoxycarbonylaminopropylamino)-3-(4-pyridyl)-2-(4-fluorophenyl)-7-aza-indole] and `N[C@@H](Cc1cccnc1)C(=O)Nc1ccc2c(-c3ccncc3)c(-c3ccc(F)cc3)[nH]c2n1` [Compound 111, 6-(3′-(3-pyridyl)-1′-oxo-2′S-aminopropylamino)-3-(4-pyridyl)-2-(4-fluorophenyl)-7-aza-indole] cannot be ordered by IC50: under 20 µM for the first, under 20 µM for the second.

`CC(C)(C)OC(=O)N[C@@H](Cc1cncn1C(=O)OC(C)(C)C)C(=O)Nc1ccc2c(-c3ccncc3)c(-c3ccc(F)cc3)[nH]c2n1` [Compound 112] and `CN[C@@H](CC(C)C)C(=O)Nc1ccc2c(-c3ccncc3)c(-c3ccc(F)cc3)[nH]c2n1` [Compound 129, 6-(1′-oxo-2′S-N-methyl-4-methyl-2-aminopentylamino)-3-(4-pyridyl)-2-(4-fluorophenyl)-7-aza-indole] cannot be ordered by IC50: under 20 µM for the first, under 20 µM for the second.

`N[C@@H](Cc1cnc[nH]1)C(=O)Nc1ccc2c(-c3ccncc3)c(-c3ccc(F)cc3)[nH]c2n1` [Compound 113, 6-(L-histidinylamino)-3-(4-pyridyl)-2-(4-fluorophenyl)-7-aza-indole] and `N[C@@H](Cc1cccs1)C(=O)Nc1ccc2c(-c3ccncc3)c(-c3ccc(F)cc3)[nH]c2n1` [Compound 133, 6-(3′-(2-thienyl)-1′-oxo-2′-(L)-aminopropylamino)-3-(4-pyridyl)-2-(4-fluorophenyl)-7-aza-indole] cannot be ordered by IC50: under 20 µM for the first, under 20 µM for the second.

`O=C(Nc1ccc2c(-c3ccncc3)c(-c3ccc(F)cc3)[nH]c2n1)[C@@H]1Cc2ccccc2CN1` [Compound 115, 6-(3(S) 1′,2′,3′,4′-tetrahydro-3′-isoguinolinyloxoamino)-3-(4-pyridyl)-2-(4-fluorophenyl)-7-aza-indole] and `N[C@@H](C(=O)Nc1ccc2c(-c3ccncc3)c(-c3ccc(F)cc3)[nH]c2n1)c1ccccc1` [Compound 117, 6-(2′-phenyl-1′-oxo-2′R-aminoethylamino)-3-(4-pyridyl)-2-(4-fluorophenyl)-7-aza-indole] cannot be ordered by IC50: under 20 µM for the first, under 1 µM for the second.

`N[C@H](C(=O)Nc1ccc2c(-c3ccncc3)c(-c3ccc(F)cc3)[nH]c2n1)c1ccccc1` [Compound 119, 6-(2′-phenyl-1′-oxo-2′S-aminoethylamino)-3-(4-pyridyl)-2-(4-fluorophenyl)-7-aza-indole] and `CN[C@@H](C(=O)Nc1ccc2c(-c3ccncc3)c(-c3ccc(F)cc3)[nH]c2n1)c1ccccc1` [Compound 121, 6-(2′-phenyl-1′-oxo-2′R-N-methylaminoethylamino)-3-(4-pyridyl)-2-(4-fluorophenyl)-7-aza-indole] cannot be ordered by IC50: under 1 µM for the first, under 1 µM for the second.

`N[C@@H](Cc1ccccc1)C(=O)Nc1ccc2c(-c3ccncc3)c(-c3ccc(F)cc3)[nH]c2n1` [Compound 125, 6-(3′-phenyl-1′-oxo-2′-(L)-aminopropylamino)-3-(4-pyridyl)-2-(4-fluorophenyl)-7-aza-indole] and `N[C@@H](Cc1csc2ccccc12)C(=O)Nc1ccc2c(-c3ccncc3)c(-c3ccc(F)cc3)[nH]c2n1` [Compound 137, 6-(3′-(3-benzothienyl)-1′-oxo-2′S-aminopropylamino)-3-(4-pyridyl)-2-(4-fluorophenyl)-7-aza-indole] cannot be ordered by IC50: under 20 µM for the first, under 20 µM for the second.

With `[N-]=[N+]=Nc1ccc(C[C@H](N)C(=O)Nc2ccc3c(-c4ccncc4)c(-c4ccc(F)cc4)[nH]c3n2)cc1` [Compound 135, 6-(3′-(4-azidophenyl)-1′-oxo-2′S-aminopropylamino)-3-(4-pyridyl)-2-(4-fluorophenyl)-7-aza-indole] the IC50 was under 20 µM.
